From patent US20230331817A1 (The Regents of the University of California, priority 2020, published 2023)

Legend:
[1] = test system: plasmin induced lysis of clot formed in whole blood; experiment: Thromboelastography, plasmin induced clot lysis in whole blood; assay type: biochemical, human; conditions: for G / LY30 / LY60 / MA: NHB + […] plasmin
Method: Plasmin and CaCl2) were added last to initiate simultaneous clotting and fibrinolysis. […] The thromboelastograph was calibrated each day and each inhibitor concentration was tested in duplicate. TEG Analytical Software (version 4.2.2; Haemonetics Corporation, Braintree, MA) was used to calculate the time to clot initiation (R), maximal clot strength (maximal amplitude (MA), which was directly related to the shear elastic modulus strength, G), and percent lysis 60 minutes after MA (LY60) (42).

HUVEC [2] = assay type: cell-based, human
Method: (§1) Resazurin reduction assay (Fisher Scientific) was used to evaluate the potential cytotoxicity of antifibrinolytic agents toward primary human endothelial cells and skin fibroblasts. Phosphate buffer that was used to dissolve the samples was included as negative control. The assay is based on reduction of the non-fluorescent dye resazurin, to the highly fluorescent resorufin by viable cells. […] Briefly, cells in 96-well cell culture plates were treated with different concentrations of antifibrinolytic compounds (as described above). After 24 hours resazurin reagent was added to each well and the plates were incubated at 37° C. for 4 hours. Fluorescence was measured by the FLUOstar Omega Microplate Reader (BMG Labtech) using an excitation wavelength of 544 nm and an emission wavelength of 590 nm. Each assay was done in duplicate, with three replicates each. The viability was evaluated based on comparison with untreated cells.

[3] = test system: primary human dermal skin fibroblasts; experiment: Resazurin reduction (alamarBlue) viability assay, skin fibroblasts; assay type: cell-based
Method: as §1

HUVEC [4] = conditions: 24 hours; 30 μM KD1TM, 30 μM BPTI, 60 mM EACA, 30 mM TXA
From the text: (§2) Primary human pooled umbilical vein endothelial cells (HUVEC) were obtained from ATCC. The cells were maintained in Vascular Cell Basal Medium (ATCC), supplemented with the Endothelial Cell Growth Kit-BBE (ATCC) and Penicillin-Streptomycin-Amphotericin B (ATCC). Primary human dermal skin fibroblasts were obtained from LONZA and maintained in Fibroblast Basal Medium (FBMTM, LONZA), supplemented with a cocktail of growth factors, fetal bovine serum and antibiotics (FGMTM-2 SingleQuots™, LONZA). All cells were maintained in a humidified 5% C02 atmosphere at 37° C. and were passaged once they reached 80% confluence. All experiments were performed with cells in the logarithmic growth phase.
(§3) For toxicity studies, cells were seeded into 96-well or 24-well cell culture plates at 3,500 cells/cm2 and were used for experiments once they reached 80% confluence.
(§4) Cell toxicity and cell death was evaluated with the CellTox™ Green Cytotoxicity Assay (Promega). This assay measures changes in membrane integrity that occur as a result of cell death. The dye used in the system is excluded from viable cells but binds to DNA in compromised cells, which results in a fluorescent signal. We measured cell death in HUVEC and primary fibroblasts treated with antifibrinolytic agents at 4 concentrations (as indicated above) with triplicates per concentration in 24-well plates after 24 hours of exposure. Hoechst (Thermo Fisher Scientific) was used to stain all nuclei. Images of cells were captured using an inverted microscope (Nicon; Edipse T2000 TE). Green fluorescent cells (FITC filter) and Hoechst stained cells (DAPI filter) were counted using Image J software.

[5] = test system: primary human dermal skin fibroblasts; conditions: 24 hours; 30 μM KD1TM, 30 μM BPTI, 60 mM EACA, 30 mM TXA
From the text: as §2, §3, §4

[6] = human, in vivo; cited from earlier work

## NCCCCCC(=O)O [EACA, ε-aminocaproic acid]
[1]
  G: 2388.0 ± 49.6 dyn/cm^2
[1]; inhibitor 200 μM
  G: 153.25 ± 9.8 dyn/cm^2
  LY30: 0%
  LY60: 0%
  MA: 3.20 ± 0.71 mm
[1]; inhibitor 500 μM
  G: 747.75 ± 14.8 dyn/cm^2
  LY30: 0%
  LY60: 0%
  MA: 13.15 ± 0.64 mm
[1]; inhibitor 1000 μM
  G: 1070.1 ± 35.0 dyn/cm^2
  LY30: 0%
  LY60: 16.8 ± 0.35%
  MA: 16.40 ± 0.28 mm
[1]; inhibitor 3000 μM
  LY30: 0%
  LY60: 0.6 ± 0.04%
  MA: 32.60 ± 0.71 mm
[1]; […] plasmin, 3 mM EACA
  G restored, relative to blood without plasmin: ~50%
  MA restored, relative to blood without plasmin: ~67%
HUVEC [2]
  HUVEC viability (FIG. 4): not significantly different from the untreated cells
[3]
  Fibroblast cell viability (FIG. 5): not significantly different from the untreated cells
HUVEC [4]
  HUVEC cytotoxicity, CellTox green (FIG. 7): only observed in skin fibroblasts
[5]
  Fibroblasts cytotoxicity, CellTox green (FIG. 8): significant toxicity

## Ecallantide
[6]
  half-life: ~2 h
